The source of these data is PubChem BioAssay (NCI).

Some test systems named below: A498 renal; ACHN renal; BT-549 breast; CCRF-CEM leukemia; COLO 205 colon; HCT-116 colon; HT29 colon; NCI/ADR-RES ovarian; OVCAR-5 ovarian; UACC-62 melanoma.
Common to all, as to assay: growth of human tumour cells (NCI), 48 h

Structures are written as SMILES.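 In this assay, cells in 96-well plates receive the compound at five concentrations for 48 hours. Endpoints are linearly interpolated between the surrounding concentrations. GI50 marks 50% less growth. TGI denotes the concentration required for complete inhibition of growth.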 Bounds are passed on as bounds.

As for `CC[C@]1(O)CC2CN(CCc3c([nH]c4ccccc34)[C@@](C(=O)OC)(c3cc4c(cc3OC)N(C)[C@H]3[C@@](O)(C(=O)OC)[C@H](OC(C)=O)[C@]5(CC)C=CCN6CC[C@]43[C@@H]65)C2)C1` (stereo partly specified), the GI50 with A498 renal was 0.00547 µM; with ACHN renal, 0.076 µM; in the assay on BT-549 breast, 0.00538 µM; in the assay on CCRF-CEM leukemia it was less than 0.005 µM; in the assay with COLO 205 colon it was less than 0.005 µM; with HCT-116 colon, less than 0.005 µM. Moreover, the GI50 in the assay with HT29 colon is less than 0.005 µM; with NCI/ADR-RES ovarian it was 0.0912 µM; in the assay on OVCAR-5 ovarian, 0.01 µM; with UACC-62 melanoma it was less than 0.005 µM. Moreover, the TGI with A498 renal was 0.0994 µM; in the assay with ACHN renal it was greater than 50 µM; with BT-549 breast, 0.595 µM; in the assay with CCRF-CEM leukemia it was 18.5 µM; with COLO 205 colon it was 0.00511 µM; with HCT-116 colon, 0.269 µM. For the same molecule, the TGI is 5.18 µM with HT29 colon, 1.06 µM in the assay with NCI/ADR-RES ovarian, greater than 47.2 µM with OVCAR-5 ovarian and 8.91 µM in the assay with UACC-62 melanoma.
Take `C[C@@H]1C=C(CCCCCCCCCCC[C@H](O)[C@@H]2CCC(=O)O2)C(=O)O1`: the GI50 is 25.6 µM with A498 renal; 17.9 µM in the assay with ACHN renal; 47.4 µM with BT-549 breast; 17.6 µM in the assay on CCRF-CEM leukemia; 19.1 µM in the assay with COLO 205 colon; 28 µM with HCT-116 colon. For the same molecule, the GI50 in the assay with HT29 colon was 42.4 µM; in the assay on NCI/ADR-RES ovarian, 12.1 µM; in the assay on UACC-62 melanoma, 21.2 µM. Also, the TGI in the assay on A498 renal is 68.7 µM; in the assay on ACHN renal it was 49.3 µM; in the assay on BT-549 breast it was greater than 100 µM; in the assay with CCRF-CEM leukemia it was 47.4 µM; in the assay with COLO 205 colon, 40.6 µM; with HCT-116 colon it was greater than 100 µM. Also, the TGI in the assay with HT29 colon is greater than 100 µM; in the assay with NCI/ADR-RES ovarian, 34 µM; with UACC-62 melanoma, 85.7 µM.
For the molecule `C1CC[N-]CC1.C1CC[N-]CC1.C1CC[N-]CC1.C1CC[N-]CC1.[Cl][Rh][Cl]`, the GI50 with A498 renal is 15.6 µM; with ACHN renal, 50.1 µM; in the assay on BT-549 breast, 5.6 µM; with CCRF-CEM leukemia, 3.46 µM; with COLO 205 colon it was 3.17 µM; in the assay with HCT-116 colon it was 4.75 µM. The GI50 with HT29 colon was 7.6 µM; in the assay with NCI/ADR-RES ovarian, greater than 100 µM; in the assay with OVCAR-5 ovarian it was 6.83 µM. Also, the TGI is 55.2 µM with A498 renal; greater than 100 µM in the assay with ACHN renal; 19.3 µM with BT-549 breast; 72.4 µM with CCRF-CEM leukemia; 9.34 µM with COLO 205 colon; greater than 100 µM in the assay with HCT-116 colon. For the same molecule, the TGI is 45.8 µM with HT29 colon, greater than 100 µM with NCI/ADR-RES ovarian and 49.8 µM with OVCAR-5 ovarian.
Take `CSc1nc2c(c(=O)[nH]1)N=C1c3ccccc3C(=O)C1C(c1ccc(F)cc1)N2` (stereo unspecified): the GI50 was 4.88 µM in the assay on A498 renal; 11.6 µM in the assay on ACHN renal; 8.5 µM in the assay on BT-549 breast; 8.16 µM with CCRF-CEM leukemia; 13 µM in the assay on COLO 205 colon; 7.23 µM with HCT-116 colon. Also, the GI50 in the assay on HT29 colon is 3.36 µM; in the assay on NCI/ADR-RES ovarian, 6.42 µM; with OVCAR-5 ovarian, 17.7 µM; with UACC-62 melanoma, 3.04 µM. In addition, the TGI with A498 renal was 20.5 µM; with ACHN renal it was 36.4 µM; in the assay on BT-549 breast it was 41.2 µM; in the assay on CCRF-CEM leukemia, greater than 100 µM; in the assay on COLO 205 colon it was greater than 100 µM; with HCT-116 colon it was 19.9 µM. Besides, the TGI in the assay on HT29 colon was 12.3 µM; in the assay on NCI/ADR-RES ovarian it was 33.1 µM; in the assay on OVCAR-5 ovarian, 41.1 µM; in the assay on UACC-62 melanoma, 48.9 µM.
Regarding `NC(=O)c1cnc(N[C@@H]2CCCC[C@@H]2N)nc1Nc1cccc(-n2nccn2)c1`, the GI50 is 4.62 µM with A498 renal; 2.69 µM in the assay on ACHN renal; 6.37 µM with BT-549 breast; 5 µM in the assay with CCRF-CEM leukemia; 1.81 µM with COLO 205 colon; 2.3 µM with HCT-116 colon. Also, the GI50 with HT29 colon is 2.82 µM; in the assay with NCI/ADR-RES ovarian, 14.6 µM; in the assay with OVCAR-5 ovarian, 3.65 µM; with UACC-62 melanoma, 5.48 µM. In addition, the TGI stood at 17.4 µM in the assay on A498 renal; 11.1 µM in the assay on ACHN renal; 19 µM in the assay on BT-549 breast; 19.8 µM with CCRF-CEM leukemia; 4.56 µM in the assay on COLO 205 colon; 7.7 µM in the assay on HCT-116 colon. Further, the TGI in the assay on HT29 colon is 11.5 µM; in the assay with NCI/ADR-RES ovarian, 30.6 µM; in the assay with OVCAR-5 ovarian it was 15.3 µM; in the assay with UACC-62 melanoma it was 20.3 µM.
On to `O=C(O)C(=Cc1ccnc2ccccc12)C(=O)O`, for which the TGI in the assay on A498 renal, in the assay on ACHN renal, with BT-549 breast, in the assay on CCRF-CEM leukemia, in the assay on COLO 205 colon and in the assay on HCT-116 colon was greater than 100 µM in each case. Also, the TGI in the assay with HT29 colon, in the assay with NCI/ADR-RES ovarian, with OVCAR-5 ovarian and in the assay with UACC-62 melanoma was greater than 100 µM throughout.
Regarding `CC(C)(C)N1CCC1C(N)=O` (stereo unspecified), the GI50 in the assay on A498 renal, in the assay with ACHN renal, with BT-549 breast, with CCRF-CEM leukemia, in the assay on COLO 205 colon and with HCT-116 colon was greater than 100 µM in each case. Further, the GI50 in the assay with HT29 colon, in the assay on NCI/ADR-RES ovarian, with OVCAR-5 ovarian and in the assay on UACC-62 melanoma was greater than 100 µM throughout. Also, the TGI in the assay with A498 renal, in the assay on ACHN renal, in the assay on BT-549 breast, in the assay on CCRF-CEM leukemia, in the assay on COLO 205 colon and in the assay on HCT-116 colon was greater than 100 µM throughout. The TGI with HT29 colon, in the assay on NCI/ADR-RES ovarian, in the assay on OVCAR-5 ovarian and in the assay with UACC-62 melanoma was greater than 100 µM in each case.
Consider `Cc1ccc2c(c1)nc(C(=O)c1ccco1)c(C(F)(F)F)[n+]2[O-]`, for which the GI50 is 1.66 µM with A498 renal; greater than 100 µM in the assay on ACHN renal; 78.5 µM in the assay with BT-549 breast; greater than 100 µM in the assay on CCRF-CEM leukemia; greater than 100 µM in the assay with COLO 205 colon; greater than 100 µM in the assay with HCT-116 colon. The GI50 with HT29 colon was greater than 100 µM; in the assay on NCI/ADR-RES ovarian it was 57 µM; with OVCAR-5 ovarian it was greater than 100 µM; in the assay with UACC-62 melanoma, 89.1 µM. Also, the TGI in the assay on A498 renal was 3.06 µM; in the assay on ACHN renal, greater than 100 µM; in the assay with BT-549 breast, greater than 100 µM; in the assay on CCRF-CEM leukemia, greater than 100 µM; in the assay on COLO 205 colon, greater than 100 µM; in the assay on HCT-116 colon it was greater than 100 µM. The TGI with HT29 colon, in the assay on NCI/ADR-RES ovarian, in the assay with OVCAR-5 ovarian and in the assay with UACC-62 melanoma was greater than 100 µM each time.
